This note sets out measurements from paper PMC12186255, “Discovery and Characterization of Small Molecule Inhibitors Targeting Exonuclease 1 for Homologous Recombination-Deficient Cancer Therapy” (ACS Chemical Biology, 2025).

The structures appear in SMILES notation.

One assay relates to SF-295. Put plainly: Cell line drug profiling, CellTiter Glo. It counts as cell-based, human. Particulars: Homo sapiens, SF-295, 72 h. Here is the method: (§1) We tested the cytotoxicity of representative compounds from the seven EXO1i scaffolds against a subset of the NCI-60 cell line panel along with three additional pancreatic cell lines (FG, AsPC1, and CaPan2). In general, cells were seeded in 384-well tissue culture-treated plates overnight and treated with various concentrations of each hit compound (a serial 3-fold dilution from 50 μM for all tested hits). Each concentration was performed in duplicate. Cell viability was then measured by CellTiter Glo (Promega) after 72 h of treatment.

The target in the next assay is T1, EXO1 I125A (Homo sapiens, UniProt Q9UQ84, I125A).
T1 construct: The N-terminal domain of human EXO1 (hEXO1) (residues 1–345) was cloned into the pET28b vector; made in house; host or cells: E. coli BL21(DE3) and Rosetta 2(DE3)
T1 sequence (Q9UQ84 1-345 I125A): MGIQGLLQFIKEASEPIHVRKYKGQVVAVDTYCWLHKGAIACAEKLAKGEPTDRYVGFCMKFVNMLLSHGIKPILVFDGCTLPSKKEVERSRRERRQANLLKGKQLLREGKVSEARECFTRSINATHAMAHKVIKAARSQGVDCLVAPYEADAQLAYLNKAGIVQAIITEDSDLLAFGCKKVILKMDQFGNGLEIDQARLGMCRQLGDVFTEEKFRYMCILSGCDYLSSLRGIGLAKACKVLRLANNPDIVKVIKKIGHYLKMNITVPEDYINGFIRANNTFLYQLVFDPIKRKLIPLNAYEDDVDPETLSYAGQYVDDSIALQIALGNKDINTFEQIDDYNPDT
Put plainly: In vitro exonuclease activity of mutant with inhibitors. The assay is classed as biochemical. Particulars: EXO1 25 nM, DNA substrate 250 nM. On the procedure: (§2) Simultaneously, we tested the effect of each point mutation on the in vitro exonuclease activity. Most mutations in site 1 result in some loss of enzymatic activity compared to WT EXO1 (Figure S13; WT:Figure S13a), particularly K85A and D225A (Figure S13b,f). […] However, at concentrations of 20 and 40 μM, the mutants (K85A and R92A) behaved more like WT (Figure b).
(§3) In both panels a and b, DMSO without inhibitors was used as a control, and its relative binding activity was set equal to 1.0. The EXO1 enzyme concentration was 25 nM, and the DNA substrate concentration was 250 nM. The values shown are the mean ± S.D. of three independent experiments.
(§4) The N-terminal domain of human EXO1 (hEXO1) (residues 1–345) was cloned into the pET28b vector. The following mutations were introduced via site-directed mutagenesis based on the findings of molecular docking analysis: K85A, E89A, R92A, I125A, D225A, K292A, and K294A (oligonucleotide primers listed in Table S1) following the established protocol.

In a further assay the target is T2, EXO1 E89A (Homo sapiens, UniProt Q9UQ84, E89A).
T2 construct: The N-terminal domain of human EXO1 (hEXO1) (residues 1–345) was cloned into the pET28b vector; made in house; host or cells: E. coli BL21(DE3) and Rosetta 2(DE3)
T2 sequence (Q9UQ84 1-345 E89A): as the sequence (Q9UQ84 1-345 I125A) above, with E89A, A125I counted along it
The assay is described as above. It counts as biochemical. Particulars: EXO1 25 nM, DNA substrate 250 nM. On the procedure: as §2, §3, §4

The subject of a further assay is PC3. Put plainly: Cell line drug profiling, CellTiter Glo. The assay is classed as cell-based. Particulars: Homo sapiens, PC-3; PC3, Prostate, 72 h. On the procedure: as §1
(In ATP-based viability assays light output follows the ATP content of the culture.)

The subject of another assay is OVCAR-4. The assay is described as follows: Cell line drug profiling, CellTiter Glo. It counts as cell-based. To be noted: Homo sapiens; OVCAR-4, Ovarian, 72 h. On the procedure: as §1
The next assay concerns DU145 (B3). Put plainly: Cell line drug profiling, CellTiter Glo. The assay is classed as cell-based. To be noted: Homo sapiens, DU-145, Prostate, 72 h. Here is the method: as §1
A further assay deals with IGR-OV1. Put plainly: Cell line drug profiling, CellTiter Glo. Particulars: Homo sapiens, IGROV-1; IGR-OV1, Ovarian, 72 h. The assay is classed as cell-based. On the procedure: as §1
The subject of the next assay is DU145. The assay is described as follows: Cell line drug profiling, CellTiter Glo. The assay is classed as cell-based. Particulars: Homo sapiens, DU-145; DU145, Prostate, 72 h. Here is the method: as §1
Another assay concerns NCI/ADR-RES. Put plainly: Cell line drug profiling, CellTiter Glo. To be noted: Homo sapiens, Ovarian, 72 h. The assay is classed as cell-based. On the procedure: as §1
The test system of a further assay is SNB-19. Put plainly: Cell line drug profiling, CellTiter Glo. The assay is classed as cell-based. Particulars: Homo sapiens; SNB-19, Central Nervous System, 72 h. On the procedure:
as §1

The test system of the next assay is H23. The assay is described as follows: Cell line drug profiling, CellTiter Glo. Particulars: Homo sapiens, NCI-H23; H23, Lung, 72 h. It counts as cell-based. On the procedure: as §1
The next assay has as its system UACC-257. Put plainly: Cell line drug profiling, CellTiter Glo. The assay is classed as cell-based. To be noted: Homo sapiens; UACC-257, Melanoma, 72 h. Here is the method: as §1
The subject of the next assay is OVCAR-5. Put plainly: Cell line drug profiling, CellTiter Glo. It counts as cell-based. To be noted: Homo sapiens; OVCAR-5, Ovarian, 72 h. Here is the method: as §1
The test system of the next assay is T-47D. Put plainly: Cell line drug profiling, CellTiter Glo. The assay is classed as cell-based. To be noted: Homo sapiens, T47D, Breast, 72 h. Here is the method: as §1
Another assay relates to SKOV-3. Put plainly: Cell line drug profiling, CellTiter Glo. It counts as cell-based. To be noted: Homo sapiens, SK-OV-3; SKOV-3, Ovarian, 72 h. Here is the method:
as §1

In another assay the test system is U251. The assay is described as follows: Cell line drug profiling, CellTiter Glo. To be noted: Homo sapiens, U-251; U251, Central Nervous System, 72 h. It counts as cell-based. Here is the method:
as §1

The subject of another assay is OVCAR-8. Put plainly: Cell line drug profiling, CellTiter Glo. The assay is classed as cell-based. Particulars: Homo sapiens; OVCAR-8, Ovarian, 72 h. Here is the method:
as §1

Assay [1] concerns MDA-MB-436 (BRCA1−) and MDA-MB-436 (BRCA1+) cells. Put plainly: In vitro cell survival assay (cell counting). The assay is classed as cell-based, human. Particulars: 1-50 μM F684, 5 days. Here is the method:
For this assay, 10,000 cells were seeded per well in a 24-well plate and incubated in a complete culture medium containing DMSO or the EXO1i of interest at 37 °C with 5% CO2. The medium was refreshed every 3 to 4 days by replacing it with a fresh medium containing DMSO or EXO1i. After 5 days, the cells were trypsinized, and the survival curve was generated by manual cell counting.

The test system is the same in assay [2]. The assay is described as follows: Annexin V apoptosis assay. To be noted: 5 days of treatment. It counts as cell-based, human. Here is the method: After 24 h of incubation, testing compounds were added to cells at final concentrations of 50, 25, 12, and 5 μM using the Echo Liquid Handler (Beckman). Subsequently, 10 μL of the NIR-labeled Annexin V apoptosis reagent (Cat. #4768, Sartorius, Germany) was added to each well at a 1:200 final dilution. The plates were then transferred to the Incucyte Live-Cell Analysis System for real-time apoptosis monitoring over a 5 day period. Imaging was conducted using a 10× objective with phase-contrast and near-infrared (NIR) fluorescent channels, capturing scans every 2 h. Image analysis was performed with the Incucyte software, and the total NIR fluorescence intensity was quantified to evaluate the apoptosis.

The test system of assay [3] is MDA-MB-436 (BRCA1+) tumors. Put plainly: In vivo tumor growth assay, xenograft. To be noted: p = 0.64. More on the design: species or system mouse. On the procedure:
(§5) The tumor growth rate of human breast cancer cells with or without treatment with EXO1i was evaluated by using a xenograft breast cancer mouse model. […] The tumor volume in each mouse was measured twice a week and calculated using the formula (length × width × width)/2 (mm^3). When the tumors reached a volume of 1000 mm^3, the mice were euthanized. Animal studies were conducted in accordance with an approved protocol adhering to the IACUC policies and procedures of the City of Hope.

For assay [4], the system named is MDA-MB-436 (BRCA1−) tumors. The assay is described as follows: In vivo tumor growth assay, xenograft. Particulars: p = 0.018. Set-up: species or system mouse. Here is the method: as §5
[5] abbreviates: 8.5 mg/kg daily intraperitoneal.

On to `COC(=O)c1nc(-c2ccc(OC)cc2)nc(O)c1O` [C200], for which the IC50 was over 50 µM in the assay with SF-295; over 50 µM in the assay with PC3; over 50 µM in the assay with OVCAR-4; over 50 µM in the assay with DU145 (B3); over 50 µM in the assay on IGR-OV1; 49.4 µM in the assay with DU145. For the same compound, the IC50 with NCI/ADR-RES, with SNB-19, in the assay with H23, with UACC-257, with OVCAR-5 and with T-47D was over 50 µM each time. Also, the IC50 in the assay on SKOV-3, in the assay on U251 and in the assay with OVCAR-8 was over 50 µM throughout. For the same compound, on EXO1 I125A, the “inhibitory activity against EXO1 I125A mutant vs WT” value was “did not have a significant”. For the same compound, at EXO1 E89A, the “inhibitory activity against EXO1 E89A mutant vs WT” value is on record as “did not have a significant”.

With `Cc1cccc(N2CCN(c3ccc(NS(=O)(=O)c4ccccc4)c(C(=O)O)c3)CC2)c1C` [F684], the “cell killing (survival), BRCA1– vs BRCA1+ cells” value in assay [1] was “more effective in killing BRCA1– cells compared to BRCA1+ cells”. Also, the “apoptosis (Annexin V fluorescence intensity), BRCA1− vs BRCA1+” value in assay [2] was “substantially stronger killing effect in a BRCA1– context”. The “average growth rate of BRCA1+ tumors” value in assay [3] (8.5 mg/kg body weight/day intraperitoneal, NSG mice, vehicle 16.6) worked out at 15.1 %/day. Further, the “tumor volumes compared with vehicle, BRCA1+ tumors” value in assay [3] (setting [5]) was “no effect”. Moreover, the “average growth rate of BRCA1– tumors” value in assay [4] (8.5 mg/kg body weight/day intraperitoneal, NSG mice, vehicle […]) turned out to be 11.3 %/day. The “tumor volumes compared with vehicle, BRCA1- mouse models” value in [4] (setting [5]) is recorded as “significantly reduced tumor volumes”.

The term IC50 denotes the midpoint of a concentration-inhibition curve. High values mean a need for much substance, low ones inhibition by little substance.
